What was measured:
[1] = test system: Papillary muscle of right ventricle; experiment: Inhibition of the cardiotonic activity of isoproterenol (developed tension) in isolated papillary muscle, as index of inhibiting Ca²⁺ overload into cells; set-up: species or system male Hartley-strain guinea-pigs; details: Drug concentration 10⁻³ M; inhibition of developed tension increased by isoproterenol
Experimental: For evaluation of the extent of inhibiting Ca²⁺ overload into cells, which is the pharmacological activity of the compound of the present invention, inhibition of the cardiotonic activity of isoproterenol by the compounds of the present invention was measured.
That is to say, since isoproterenol has been known to cause Ca²⁺ overload by excessive Ca²⁺ influx into cardiac muscle cells (Fleckenstein A., Janke J., Doring H., Leder O.; Recent advances in Studies on cardiac structure and metabolism, Myocardial Biology, Vol. 4, pp. 563 - 580 (1974)), the compound which inhibits the activity of isoproterenol can inhibit Ca²⁺ overload into cells.
Papillary muscle of right ventricle isolated from male Hartley-strain guinea-pigs (body weight: 250 to 350 g) was suspended in an organ bath filled with a nutrient solution (Krebs-Henseleit solution). The temperature of the nutrient solution was maintained at 32 °C, and a gas mixture of 95 % oxygen and 5 % carbon dioxide was aerated. The papillary muscle was applied with a resting tension of about 0.5 g, and stimulated with platinum electrodes by an electric pulse wave of a duration of 1 msec, a frequency of 1 Hz and a voltage higher by 15 % than the threshold value. The developed tension of the papillary muscle was measured through a tension transducer and recorded with a polygraph. After the specimen was stabilized for about 90 minutes, isoproterenol ([…]) was added into the organ bath so that developed tension could be increased by 100 % or more, and at the point when the maximum reaction was obtained, the compounds of the present invention were added into the organ bath, and % inhibition of the developed tension increased by isoproterenol was measured.

isolated heart of rat = experiment: Protective effect on ischemic myocardium, Langendorff-perfused isolated heart (ischemia 90 minutes, then reperfusion); set-up: species or system Male Wister rats; details: for Developed tension (%): % of value in equilibration period, 30 minutes after reperfusion, Control 32.5; for Rise in resting tension: just before reperfusion, Control 0.72
Experimental: For the evaluation of the protective effect of ischemic myocardium, two parameters (rise in resting tension and decrease in developed tension), indices of myocardial injury, were measured in the myocardial ischemic model using isolated heart of rat.
It is reported that drugs which have the protective effect on ischemic myocardium attenuates the rise in resting tension and decrease in developed tension induced by Ca²⁺ overload into myocardial cells when the heart is exposed to ischemia. (Araki, H. & Lefer, AM.: Role of prostacyclin in the preservation of ischemic myocardial tissue in the perfused cat heart. Circ. Res., 47: 757-763, 1980).
Male Wister rats (250-350 g) were killed and their hearts excised. The hearts were then arranged for coronary perfusion with Krebs-Henseleit solution (37 °C, aerated with a gas mixture of 95 % O₂ - 5 % CO₂) according to the method of Langendorff. Tension development was monitored with a force displacement transducer attached via a cotton ligature to the ventricular apex with a resting tension of 1.5 g. After a equilibration period of 1 hour, myocardial ischemia was induced by lowering perfusion pressure from 80 cm H₂O to 12 cm H₂O for 90 minutes. The heart was then reperfused with the previous perfusion pressure of 80 cm H₂O. Rise in resting tension (g) just before reperfusion and developed tension (%) (% of value in equilibration period) 30 minutes after reperfusion were measured.

[2] = Acute toxicity, 50 % lethal dose (LD₅₀); details: mouse, in vivo, male mice
Experimental: Among compounds of the present invention, the compound No. 110 was tested for its acute toxicity.
Compound No. 110 was administered to male mice (18 - 25 g) for determination of 50 % lethal dose (LD₅₀). Two routes of administration tested were as follows: • 1) intravenous (into tail vein) administration in which calculation of LD₅₀ was according to up and down method and • 2) oral administration in which calculation of LD₅₀ was according to probit method. Compound No. 110 was diluted in physiological salt solution (0.9 % sodium chloride) for intravenous administration and distilled water for oral administration.

## O=S(=O)(O)c1cc(Cl)ccc1N1CCNCC1 [compound 93]
[1]
  Inhibition (%): 28.0%

## CC(C)c1ccc(N2CCNCC2)c(S(=O)(=O)O)c1 [compound 111]
[1]
  Inhibition (%): 27.5%

## O=S(=O)(O)c1cc(-c2ccccc2)ccc1N1CCNCC1 [compound 91]
[1]
  Inhibition (%): 17.2%

## CCCc1ccc(N2CCN(Cc3ccc(OC)c(OC)c3)CC2)c(S(=O)(=O)O)c1 [Compound No. 66]
[1]
  Inhibition (%): 52.4%

## O=S(=O)(O)c1cc(Br)ccc1N1CCNCC1 [compound 94]
[1]
  Inhibition (%): 18.5%

## Cc1ccc(N2CCNCC2)c(S(=O)(=O)O)c1 [Compound No. 12, 2-(1-piperazinyl)-5-methylbenzenesulfonic acid]
[1]
  Inhibition (%): 18.5%

## CCCc1ccc(N2CCN(Cc3ccc(OC)c(OC)c3OC)CC2)c(S(=O)(=O)O)c1 [Compound No. 69, 2-[4-(2,3,4-trimethoxybenzyl)-1-piperazinyl]-5-n-propylbenzenesulfonic acid]
[1]
  Inhibition (%): 21.4%

## CCCc1ccc(N2CCCN(C)CC2)c(S(=O)(=O)O)c1 [compound 89]
Isolated heart of rat; Drug concentration 10⁻⁵ M
  Developed tension (%): 58.4%
  Rise in resting tension: 0.25 g

## CCCc1ccc(N2CCNCC2)c(S(=O)(=O)O)c1.Cl [Compound No. 110, 2-(1-piperazinyl)-5-n-propylbenzenesulfonic acid hydrochloride]
Isolated heart of rat; Drug concentration 10⁻⁵ M
  Developed tension (%): 77.0%
  Rise in resting tension: 0.09 g
Isolated heart of rat; Drug concentration 10⁻⁶ M
  Developed tension (%): 65.4%
  Rise in resting tension: 0.33 g
Isolated heart of rat; Drug concentration 10⁻⁷ M
  Developed tension (%): 32.2%
  Rise in resting tension: 0.48 g
[2]; Intravenous administration (tail vein), up and down method
  LD50: 63 mg/kg
[2]; Oral administration, probit method
  LD50: 2800 mg/kg
